Results from patent publication EP4700022A1, “CYP11A1 INHIBITORS AND USE THEREOF” (Xizang Haisco Pharmaceutical Co., Ltd., priority 2023, dated 2024).

Tests used:
[1] = test system: testosterone level in NCI-H295R cells; assay: cells; type: cell-based; conditions: Homo sapiens, 72 h; for IC50: read-out: IC50/nM; for inhibition at 0.1 µM: read-out: Testosterone level in H295R (Elisa) inh.% 100 nM; for inhibition at 1 µM: read-out: Testosterone level in H295R (Elisa) inh.% 1000 nM
Method: 1. The purpose of the experimental study was intended to detect the testosterone level in the NCI-H295R cells by adopting the Enzyme linked immunosorbent assay (ELISA), so as to evaluate the inhibitory effects of the compounds on the testosterone level in the NCI-H295R cells. The H295R cells were purchased from ATCC, the cell complete medium contained DMEM: F12+ 10% FBS +0.00625 mg/ml insulin +0.00625 mg/ml transferrin+6.25 ng/ml selenium +1.25 mg/ml BSA+0.00535 mg/ml linoleic acid, and the cells were cultured in a 37°C, 5% CO2 incubator. The cells in the exponential growth phase were collected, and cultured in a cytokine-free medium (phenol red 1640-free +1% PS+10% css FBS+1.25 mg/ml BSA +0.00625 mg/ml insulin + 0.00625 mg/ml transferrin+6.25 ng/ml selenium+0.00535 mg/ml linoleic acid) for 3 days. The cells in the exponential growth phase were collected on the third day. The cell suspension was adjusted with a cytokine-free medium to a corresponding concentration and plated at 60000 cells/well, with the volume being 90 µL/well. Subsequently, 10 µL of the compounds at different concentrations was added and the plate was incubated in a CO2 incubator for 3 days. After the incubation was completed, according to the operation instructions for testosterone Elisa kit (Beyotime, PT872), 50 µL of the cell culture supernatant was collected from each well and centrifuged at 500 g for 5 min at room temperature and then the resulting supernatant was collected. The samples were added to the corresponding wells at 25 µl/well, and then formulated horseradish peroxidase labeled testosterone was added at 75 µl/well. The mixture was fully mixed for 10 seconds. The reaction wells were sealed with a plate-sealing film (white) and the mixture was incubated at room temperature in the dark for 120 min. The plate was washed 3 times with a volume of 300 µl per well, and then placed onto thick absorbent paper and dried. Chromogenic reagent TMB solution was added at 100 µl/well. The reaction wells were sealed with a plate-sealing film (white) and the mixture was incubated at room temperature in the dark for 15-20 min. Subsequently, a termination solution was added at 50 µl/well, and after the mixture was fully mixed, the absorbance value OD450 was immediately measured. The absorbance readings were processed using Graphpad Prim 8.0 software and S-shaped concentration curves were plotted and the IC50 values were calculated using a four-parameter non-linear regression model. The results were processed according to formula (1), the inhibition rate of the compound at different concentrations was calculated, and the IC50 value of the compound with an inhibition rate of 50% was calculated using Graphpad Prim 8.0 software, wherein RLU compound was the readout of the treated group, and RLU control was the average value of the solvent control group. Inhibition rate% = 100-RLUcompound /RLUcontrol × 100 [formula] Table 1. Inhibitory activity on testosterone level in NCI-H295R cells

[2] = test system: pregnenolone level in NCI-H295R cells; assay: cells; type: cell-based; conditions: Homo sapiens, 72 h; for IC50: read-out: Pregnenolone level in H295R (Elisa) IC50 nM
Method: 2. The purpose of the experimental study was intended to detect the pregnenolone level in the NCI-H295R cells by adopting the Enzyme linked immunosorbent assay (ELISA), so as to evaluate the inhibitory effects of the compounds on the pregnenolone level in the NCI-H295R cells.
The H295R cells were purchased from ATCC (CRL-2128), the cell complete medium contained DMEM: F12+ 10% FBS +0.00625 mg/ml insulin+0.00625 mg/mL transferrin+6.25 ng/mL selenium+1.25 mg/mL BSA+0.00535 mg/mL linoleic acid, and the cells were cultured in a 37°C, 5% CO2 incubator. The cells in the exponential growth phase were collected, and cultured in a cytokine-free medium (phenol red 1640-free +1% PS+10% css FBS+1.25 mg/mL BSA +0.00625 mg/mL insulin+0.00625 mg/mL transferrin+6.25 ng/mL selenium+0.00535 mg/mL linoleic acid) for 3 days. The cells in the exponential growth phase were collected on the third day. The cell suspension was adjusted with a cytokine-free medium to a corresponding concentration and plated at 60000 cells/well, with the volume being 90 µL/well. Subsequently, 10 µL of the compounds at different concentrations was added and the plate was incubated in a CO2 incubator for 3 days. After the incubation was completed, the cell culture supernatant was collected and centrifuged at 2°C-8°C at 800×g for 10 min. The resulting supernatant was collected. Determination was carried out according to the operation instructions for pregnenolone Elisa kit (Antibodies-A73791), and the OD450 signal was read.
2.1 Standard curve plotting. The standard concentration was taken as the abscissa and the OD450 value as the ordinate, the coordinate points of various standards were connected with a smooth line and a curve was fitted according to the four parameter logistic (4-PL) method.
2.2 Sample quantification: The corresponding concentration (CONC) of testosterone/pregnenolone in the sample was calculated using the absorbance value of the sample and the standard curve. According to formula (2), the inhibition rate of the compound at various concentrations was calculated, and S-shaped concentration curves were plotted and the IC50 values (i.e., concentration of the compound at which the inhibition rate was 50%) were calculated using a three parameter non-linear regression model in Graphpad Prim 8.0 software. CONC cpd was the concentration of the treated group, and CONC ctrl was the average concentration value of the solvent control group. Inhibition rate% = 100%-CONCepd /CONCctrl × 100% [formula]

[3] = Pharmacokinetic test in mice; type: in vivo; conditions: mouse, male ICR mice, plasma; for Vd: read-out: Vdss
Method: 4.1. Experimental animals: Male ICR mice, 20-25 g, 6 mice/compound, purchased from Chengdu Dossy Experimental Animals Co., Ltd.
4.2 Experimental design: on the day of the experiment, the ICR mice were randomly grouped according to their body weights. […] Table 5. Administration information
vehicle for intravenous administration: 5% DMA+5% HS-15+90% NS; vehicle for intragastric administration: 0.5% MC
Before and after administration, 0.06 mL of blood was taken from the orbit under isoflurane anesthesia and placed in an EDTAK2 centrifuge tube. The tube was centrifuged at 5000 rpm at 4°C for 10 min, and plasma was collected. […] Before analysis and detection, all samples were stored at -80°C, and the samples were quantitatively analyzed by LC-MS/MS. Table 6. Pharmacokinetic parameters of test compounds in plasma of mice

[4] = Pharmacokinetic test in beagle dogs; type: in vivo; conditions: dog, male beagle dogs, plasma
Method: Experimental animals: male beagle dogs, about 8-11 kg, 6 beagle dogs/compound, purchased from Beijing Marshall Biotechnology Co., Ltd.
Experimental method: on the day of the experiment, the beagle dogs were randomly grouped according to their body weights. The animals were fasted with water available for 12-14 h one day before the administration, and were fed 4 h after the administration. Administration was performed as per Table 7.
Test compounds: example compounds and control compounds. Table 7. Administration information
Before and after the administration, 1 ml of blood was taken from the jugular veins or limb veins, and placed in an EDTAK2 centrifuge tube. Centrifugation was performed at 5000 rpm at 4°C for 10 min, and plasma was collected. The blood collection time points for both the intravenous administration group and the intragastric administration group were: 0, 5 min, 15 min, 30 min, 1 h, 2 h, 4 h, 6 h, 8 h, 10 h, 12 h, 24 h, 48 h, and 72 h. Before analysis and detection, all samples were stored at -80°C. The samples were analyzed quantitatively by LC-MS/MS. Table 8. Pharmacokinetic parameters of test compounds in plasma of beagle dogs

[5] = Pharmacokinetic test in rats; type: in vivo; conditions: rat, male SD rats, plasma; for Vd: read-out: Vdss
Method: 3.1 Experimental animals: Male SD rats (about 220 g, 6-8 weeks old, 6 rats/compound), purchased from Chengdu Dossy Experimental Animals Co., Ltd.
3.2 Experimental design: On the day of the experiment, the SD rats were randomly grouped by body weight. […] Table 3. Administration information
Before and after the administration, 0.1 ml of blood was taken from the orbit of the animals under isoflurane anesthesia and placed in an EDTAK2 centrifuge tube. The blood was centrifuged at 5000 rpm and 4°C for 10 min to collect plasma. […] Before analysis and detection, all samples were stored at -80°C. Table 4. Pharmacokinetic parameters of test compounds in plasma of rats

[6] = po, intragastric administration (10 mg/kg)
[7] = intravenous administration (2.5 mg/kg)
[8] = po, intragastric administration (3 mg/kg)
[9] = intravenous administration (1 mg/kg)

Compound	IC50 [1]	IC50 [2]	AUC(0-t) [3, 6]	half-life [3, 6]	AUC(0-t) [3, 7]	clearance [3, 7]	half-life [3, 7]	Vd [3, 7]	AUC(0-t) [5, 6]	half-life [5, 6]	AUC(0-t) [5, 7]	clearance [5, 7]	half-life [5, 7]	Vd [5, 7]	inhibition at 0.1 µM [1]	inhibition at 1 µM [1]	also measured
[2H]C([2H])([2H])C(=O)N[C@H]1CC[C@H](c2cc3oc(CN4Cc5ccc(C(F)(F)F)cc5C4)cc(=O)c3o2)CC1 [Compound 58]	57 nM	160 nM	9460 ng·h/mL	2.08 h	2960 ng·h/mL	14.2 mL/min/kg	2.77 h	1.34 L/kg	–	–	–	–	–	–	–	–	AUC(0-t) [4, 8]: 24800 ng·h/mL; half-life [4, 8]: 6.79 h; AUC(0-t) [4, 9]: 14000 ng·h/mL; clearance [4, 9]: 1.24 mL/min/kg; half-life [4, 9]: 10.2 h; Vd ([4]; intravenous administration (1 mg/kg), read-out: Vdss): 0.87 L/kg
[2H]C([2H])([2H])C(=O)N[C@H]1CC[C@H](CCOc2cc(CN3Cc4ccc(C(F)(F)F)cc4C3)ccn2)CC1 [Compound 62]	151 nM	142 nM	–	–	–	–	–	–	41500 ng·h/mL	4.13 h	10800 ng·h/mL	3.97 mL/min/kg	3.81 h	1.11 L/kg	–	–	–
[2H]C([2H])([2H])n1cc(C(=O)N[C@H]2CC[C@H](CCOc3cc(CN4Cc5ccc(C(F)(F)F)cc5C4)ccn3)CC2)cn1 [Compound 63]	92 nM	272 nM	20800 ng·h/mL	6.62 h	5530 ng·h/mL	7.37 mL/min/kg	4.7 h	2.36 L/kg	–	–	–	–	–	–	64.4%	76.4%	–
O=C(N[C@H]1CC[C@H](CCOc2cc(CN3Cc4ccc(C(F)(F)F)cc4C3)ccn2)CC1)C1CC1 [Compound 65]	168 nM	319 nM	–	–	–	–	–	–	7550 ng·h/mL	6.58 h	2150 ng·h/mL	17.4 mL/min/kg	8.25 h	8.8 L/kg	71%	75%	–
O=C(N[C@H]1CC[C@H](CCOc2cc(CN3Cc4ccc(C(F)(F)F)cc4C3)ccn2)CC1)[C@@H]1CC1(F)F [Compound 71]	–	–	–	–	–	–	–	–	–	–	–	–	–	–	74.9%	86.9%	inhibition at 0.1 µM ([2]; read-out: Pregnenolone level in H295R (Elisa) inh.% 100 nM): 43.9%; inhibition at 1 µM ([2]; read-out: Pregnenolone level in H295R (Elisa) inh.% 1000 nM): 57.5%
